Results on six molecules are retold here after patent US20010009913A1, “Anxiety method” (priority 1999, published 2001).

Entries after “also recorded” stand apart in the source; their conditions may differ. Where two headings read alike, the source gives them in different places.

Data set [1] concerns the target T1, human 5-HT1A receptor (Homo sapiens, UniProt P08908).
T1 construct: expressed in transfected cells; host or cells: HEK293 cells
T1 sequence (P08908 1-422): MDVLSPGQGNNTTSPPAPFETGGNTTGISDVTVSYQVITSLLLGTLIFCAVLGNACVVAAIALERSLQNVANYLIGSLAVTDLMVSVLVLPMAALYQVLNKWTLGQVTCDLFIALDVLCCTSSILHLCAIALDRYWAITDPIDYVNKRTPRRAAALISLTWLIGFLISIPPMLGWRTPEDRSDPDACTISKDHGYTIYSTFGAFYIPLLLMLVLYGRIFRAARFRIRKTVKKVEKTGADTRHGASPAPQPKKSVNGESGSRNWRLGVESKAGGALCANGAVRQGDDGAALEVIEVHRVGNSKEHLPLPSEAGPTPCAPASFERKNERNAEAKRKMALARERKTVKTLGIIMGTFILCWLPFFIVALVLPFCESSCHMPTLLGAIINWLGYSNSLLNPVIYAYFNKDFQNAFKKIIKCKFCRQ
The data set can be described thus: 5-HT1A receptor binding assay. The following applies: for Ki: read-out: K1 value. The method, then: Membranes are prepared for binding using the human 5-HT1A receptor expressed in HEK293 cells. Cells are collected and ruptured using a dounce homogenizer. The cells are spun at 18000xg for 10 minutes and the pellet is resuspended in assay buffer, frozen in liquid nitrogen and kept at −80° C. until the day of the assay.
A total of 30 ug protein is used per well. The assay is carried out in 96-deep-well plates. The assay buffer is 50 mM HEPES containing 2.5 mM MgCl2 and 2 mM EGTA. […] 10 mM serotonin serves as blocking agent to determine non-specific binding. The reaction is terminated by the addition of 1 ml of ice cold 50 mM HEPES buffer and rapid filtration through a Brandel Cell Harvester using Whatman GF/B filters. The filter pads are counted in an LKB Trilux liquid scintillation counter. IC50 values are determined using non-linear regression by Excel-fit.

Data set [2] has as its system dorsal raphe neurons. The data set can be described thus: Inhibition of dorsal raphe neuronal firing after systemic administration. The class given is in vivo. Conditions: previous in-house testing, I.V. and intragastric, rats. The text has this: See: VanderMaelen, et al., Eur. J. Pharmacol., 129, pp. 123-30, 1986. While one metabolite, the structural fragment 1-(2-pyrimidinyl)piperazine, also known as 1-PP, [drawing 3]

Data set [3] deals with rat pups. The data set can be described thus: Rat pup isolation-induced ultrasonic vocalization test (vocalization and locomotor activity). The class given is in vivo. The following applies: sc, 30 min prior to test; for ID50, dose predicted to reduce the number of ultrasonic calls by 50%: 9-11 day old rat pups, cold plate. The text has this:
Ultrasonic vocalizations emitted by rat pups following isolation from their mother and littermates and subjected to a variety of environmental stimuli (e.g., cold temperature) has proven to be a sensitive method for assessing potential anxiolytic and anxiogenic compounds (Winslow and Insel, 1991, Psychopharmacology, 105:513-520). Psychoactive compounds purported to be anxiolytic suppress the frequency of ultrasonic calls whereas, calls are increased by drugs with anxiogenic properties. More importantly, the isolation-induced ultrasonic vocalization paradigm appears to be most sensitive for detecting anxiolytic properties across a broad spectrum of drug classes such as benzodiazepines, 5-HT reuptake inhibitors, 5-HT1A agonists as well as NMDA antagonists.
Harlan Sprague-Dawley rat pups (male and female) were housed in polycarbonate cages with the dam until 9-11 days old. Thirty minutes before testing, pups were removed from the dam, placed into a new cage with a small amount of home bedding and brought into the lab and placed under a light to maintain body temperature at 37° C. Pups were then weighed, sexed, marked and returned to the litter group until behavioral assessment. Testing took place in a Plexiglas recording chamber that contained a metal plate maintained at (18-20° C.) with a 5×5 cm grid drawn on the plate. A microphone was suspended 10 cm above the plate to record ultrasonic vocalizations. Ultrasonic calls were recorded using the Noldus UltraVox system providing on-line analysis of the frequency and duration of calls. The number of grid cells entered by the pup was also collected by visual scoring. […] Immediately following the collection of the baseline measures, pups were injected with vehicle or drug subcutaneously at the nape of the neck and returned to its littermates. […] Baseline differences and percent change from baseline for the frequency of ultrasonic vocalizations and grid cell crossings were analyzed using a one-way ANOVA. […]

Data set [4] can be described thus: Modified Vogel Conflict test. The data set is classed as in vivo. Conditions: earlier in-house testing. The text has this:
Earlier in-house functional testing of BMY 28674 utilized an in vivo test method based on modification of the Vogel Conflict test, a simple reliable conflict procedure for testing antianxiety agents (see: Vogel, et al., Psychopharmacologia, (Berl.) 21, pp.1-7, 1971). […] No useful antianxiety activity has been ascribed to BMY 28674 previously.

Data set [5] is described as follows: Human pharmacokinetic study, oral buspirone BID for 25 days.
Data set [6] concerns dorsal raphe neurons. Conditions: VanderMaelen et al. 1986; cited from earlier work.
The conditions of data set [7]: Gammans et al. 1986; cited from earlier work.
The test system of data set [8] is CYP3A4. Nature of the data set: Inhibition of the metabolism of buspirone by ketoconazole in pooled HLM. The following applies: ketoconazole concentrations up to 0.125 μM.
Setting [9] is: membranes of HEK293 cells, 1 nM 3H-8-OH-DPAT, read-out: IC50.
The mark [10] stands for this setting: membranes of HEK293 cells, 1 nM 3H-8-OH-DPAT.

Consider `c1cnc(N2CCNCC2)nc1` [1-PP, 1-(2-pyrimidinyl)piperazine], for which, in data set [1], the IC50 was above 1 µM and the “binding / affinity at the 5-HT1A receptor” value was “does not demonstrate binding”. Moreover, in data set [2], the “inhibition of dorsal raphe neuronal firing” value is listed as “weak inhibition”.
As for `O=C1CC2(CCC(O)C2)CC(=O)N1CCCCN1CCN(c2ncccn2)CC1` (centres unmarked) [3-OH-buspirone (BMY 14295)], the IC50 in data set [1] (setting [9]) is 0.652 µM. The Ki in data set [1] (setting [10]) is 0.326 µM.
For `O=C1CC2(CCCC2)CC(=O)N1CCCCN1CCN(c2ncc(O)cn2)CC1` [5-OH-buspirone (BMY 14131)], the IC50 in data set [1] (setting [9]) came out at 0.928 µM. The Ki in data set [1] (setting [10]) came to 0.464 µM.
Turning to `O=C1CC2(CCCC2)C(O)C(=O)N1CCCCN1CCN(c2ncccn2)CC1` (centres unmarked) [BMY 28674, 6-hydroxy-8-[4-[4-(2-pyrimidinyl)-piperazinyl]-butyl]-8-azaspiro[4.5]-7,9-dione], the IC50 in data set [1] (setting [9]) amounted to 0.114 µM. For the same molecule, in data set [1] (setting [10]), the Ki came to 0.057 µM. The “ID50, dose predicted to reduce the number of ultrasonic calls by 50%” value in data set [3] is on record as 0.13 mg/kg. For the same molecule, the “ID50 dose estimated to reduce locomotor activity” value in data set [3] (grid cell crossings) is on record as 0.41 mg/kg. For the same molecule, the “antianxiety response in the Vogel test” value in data set [4] is recorded as “did not elicit an antianxiety response”. Also, in data set [5] (after oral buspirone, human subjects), the “blood concentration of BMY 28674 relative to 1-PP” value is “several-fold greater; also recorded: several-fold higher”.
Turning to `O=C1CC2(CCCC2)CC(=O)N1CCCCN1CCN(c2ncccn2)CC1` [Buspirone], the “ID50, dose predicted to reduce the number of ultrasonic calls by 50%” value in data set [3] was 0.10 mg/kg. Besides, the “inhibition of firing of dorsal raphe neurons” value in data set [6] was “potently inhibits”. Also, the “variation of maximum plasma concentration between individuals” value in data set [7] was “up to 10 fold”. The same molecule returned a concentration at 2 h in data set [5] (human, blood, po) below 1 ng/mL. Also, in data set [5] (multiple oral doses, five dose levels 5-30 mg BID, healthy adults, 25 days), the safety and tolerability entry is “safe and generally well tolerated”. Further, the “mean blood level concentration of buspirone” value in data set [5] (oral buspirone BID, at the higher doses, FIG. 3) lay in the range of 1 to 2 ng/mL.
For the molecule `CC(=O)N1CCN(c2ccc(OCC3COC(Cn4ccnc4)(c4ccc(Cl)cc4Cl)O3)cc2)CC1` (centres unmarked) [ketoconazole], in data set [8], the “effect on buspirone metabolism” value is reported as “No effect”.

For orientation: IC50 means the concentration at which inhibition is half-maximal.
